≈ marks a conversion by molar mass, not a printed value. Like-named read-outs stand apart in the source and are kept apart here.
Assays:
[1] = system: Vaccinia Virus; assay type: cell-based
[2] = system: Vaccinia Virus; assay type: cell-based; remark: listed apart in the source
[3] = system: HFF cells
[4] = system: cowpox virus; assay type: cell-based
[5] = system: cowpox virus; assay type: cell-based; remark: listed apart in the source
[6] = system: stationary HFF cells; test: Neutral Red Uptake Assay (toxicity); assay type: cell-based, human
[7] = system: cowpox; design: species or system female BALB/c mice; conditions: mouse, in vivo

Row | Structure (SMILES) | EC90 [1] [microgram/mL] | EC90 [2] [µg/mL] | CC50 [3] [microgram/mL] | concentration at which active in these cells [4] | EC50 [1] [microgram/mL] | EC50 [5] [microgram/mL] | EC90 [5] [microgram/mL] | CC50 [6] [microgram/mL] | Lung titer on Day 3 [7]
1 | O=S(=O)(NC12CC3CC(CC(C3)C1)C2)NS(=O)(=O)NC12CC3CC(CC(C3)C1)C2 [Example 1, N,N^1-Bis(tricyclo[3.3.1.1^3,7]dec-1-yl)imidodisulfamide] | 1.40 | 0.15 (≈ 0.338 µM) | 77.80 | – | – | – | – | – | –
2 | Nc1ccn(C[C@@H](CO)OCP(=O)(O)O)c(=O)n1 [CDV, reference compound] | – | – | – | about 12.0 microgram microgram/mL | 1.80 | 2.30 | – | – | –
3 | O=S(=O)([N-]S(=O)(=O)NC12CC3CC(CC(C3)C1)C2)NC12CC3CC(CC(C3)C1)C2.[Na+] [Example 11] | 0.11 | – | – | – | 0.04 | 0.50 | 2.10 | 87.6 | 6.6±1.3

From US6596771B2, “Drugs for treating viral infections” (priority 2001, dated 2003)
